In BindingDB's records for patent US20240190892 (Merck Sharp & Dohme, 2024):

What was measured:
[1] = target: Coagulation factor XI (Homo sapiens, UniProt P03951); assay: Factor XIa Assay
Experimental: (§1) The effectiveness of a compound of the present invention as an inhibitor of Coagulation factor XIa can be determined using a relevant purified serine protease, and an appropriate synthetic substrate. The rate of hydrolysis of the chromogenic or fluorogenic substrate by the relevant serine protease was measured both in the absence and presence of compounds of the present invention. Assays were conducted at rt or at 37° C. […] A decrease in the rate of fluorescence change in the presence of inhibitor is indicative of enzyme inhibition. Such methods are known to one skilled in the art. The results of this assay are expressed as the half-maximal inhibitory concentrations (IC50), or the inhibitory constant, Ki.

[2] = target: Plasma kallikrein (Homo sapiens, UniProt P03952); assay: Plasma Kallikrein Assay
Plasma kallikrein, sequence (P03952 20-390 limits assumed): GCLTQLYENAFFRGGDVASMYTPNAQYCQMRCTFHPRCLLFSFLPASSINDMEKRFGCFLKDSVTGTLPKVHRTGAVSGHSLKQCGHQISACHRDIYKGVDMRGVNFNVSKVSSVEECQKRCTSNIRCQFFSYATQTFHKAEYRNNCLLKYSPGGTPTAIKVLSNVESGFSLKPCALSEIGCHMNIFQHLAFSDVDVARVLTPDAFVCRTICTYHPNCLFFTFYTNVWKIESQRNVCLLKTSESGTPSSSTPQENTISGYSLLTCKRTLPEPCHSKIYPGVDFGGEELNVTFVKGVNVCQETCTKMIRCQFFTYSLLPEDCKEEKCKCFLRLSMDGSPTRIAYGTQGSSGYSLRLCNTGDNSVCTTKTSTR
Plasma kallikrein, sequence (P03952 391-638 limits assumed): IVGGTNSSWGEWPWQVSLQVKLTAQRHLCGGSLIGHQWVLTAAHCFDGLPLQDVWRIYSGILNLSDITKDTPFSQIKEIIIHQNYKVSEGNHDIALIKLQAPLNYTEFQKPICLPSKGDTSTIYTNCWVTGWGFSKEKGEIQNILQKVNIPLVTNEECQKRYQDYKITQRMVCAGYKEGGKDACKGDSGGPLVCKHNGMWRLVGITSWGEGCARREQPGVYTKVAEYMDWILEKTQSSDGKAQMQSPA
Experimental: as §1, with “plasma kallikrein” for “Coagulation factor XIa”

Coagulation factor XI, sequence (P03951 19-387 limits assumed): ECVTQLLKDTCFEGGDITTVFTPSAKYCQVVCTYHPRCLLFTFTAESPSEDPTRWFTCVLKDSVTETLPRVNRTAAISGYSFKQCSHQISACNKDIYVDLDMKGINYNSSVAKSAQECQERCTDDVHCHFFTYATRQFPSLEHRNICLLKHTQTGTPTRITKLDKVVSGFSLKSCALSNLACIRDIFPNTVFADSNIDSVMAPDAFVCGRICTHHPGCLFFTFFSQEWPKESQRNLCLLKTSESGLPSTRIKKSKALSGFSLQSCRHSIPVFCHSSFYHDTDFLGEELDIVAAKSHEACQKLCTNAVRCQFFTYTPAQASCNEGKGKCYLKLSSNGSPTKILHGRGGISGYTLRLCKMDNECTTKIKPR
Coagulation factor XI, sequence (P03951 388-625 limits assumed): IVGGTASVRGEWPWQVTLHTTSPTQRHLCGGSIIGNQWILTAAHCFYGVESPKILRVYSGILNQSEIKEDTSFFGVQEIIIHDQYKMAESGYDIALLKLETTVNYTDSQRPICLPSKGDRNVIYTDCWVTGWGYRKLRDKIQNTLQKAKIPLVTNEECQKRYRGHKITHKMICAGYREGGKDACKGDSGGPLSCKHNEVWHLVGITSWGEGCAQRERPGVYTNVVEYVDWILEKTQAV

IC50 [1]: ≥ 10000 nM
IC50 [2]: 28.4 nM
SMILES: CC1(O)CN(c2ccc(CNC(=O)c3cncc(N4CC[C@]5(C4)OC(=O)Nc4ccc(Cl)c(F)c45)n3)cn2)C1 [US20240190892, Example 35]
